Data: patent US20250222116A1, “PARP-1 DEGRADATION AGENT AND USE THEREOF” (XIZANG HAISCO PHARMACEUTICAL CO., LTD., priority 2021, published 2025)

Test system: breast tumor cells MDA-MB-436
Test: MDA-MB-436 cell activity test (CellTiter-Glo, 7 days)
Format: cell-based, human
Details: Homo sapiens; for IC50: MDA-MB-436, 168 h, MDA-MB-436 cells, 7 days incubation, read-out: IC50 (nM), MDA-MB-436 cell inhibitory activity; for inhibition at 10 µM: MDA-MB-436, MDA-MB-436 cells, read-out: Max inh. % 10 μM
Description: Breast tumor cells MDA-MB-436 were purchased from ATCC, the culture medium was Leibovitz's L-15+10% FBS, and the cells were cultured in a CO2-free incubator at 37° C. On day 1, the cells in the exponential growth phase were collected, and the cell suspension was adjusted to 4000 cells/135 μL with the culture medium. 135 μL of the cell suspension was added to each well of a 96-well cell culture plate and incubated overnight. On day 2, compounds at different concentrations were added, and the plate was placed in the incubator and incubated for 7 days. After the culture was completed, according to operation instructions for a CellTiter-Glo kit (Promega, G7573), 75 μL of CTG solution, which was already pre-melted and equilibrated to room temperature, was added to each well, and the mixture was uniformly mixed for 2 minutes using a microplate shaker. The plate was placed at room temperature for 10 minutes, and then […] signal values were determined using an Envision2104 plate reader (PerkinElmer). The inhibition rate was calculated using formula (1), where RLUcompound was the readout of the drug treated group, RLUcontrol was the average value of the solvent control group, and RLUblank was the average value of the cell-free well. The IC50 value was calculated using GraphPad Prism software.

| SMILES | IC50 | inhibition at 10 µM |
| --- | --- | --- |
| CCc1cc2ncc(CN3CCN(c4ccc(C(=O)NC5CCN(c6ccc7c(c6)C(=O)N(C6CCC(=O)NC6=O)C7)CC5)nc4)CC3)cc2[nH]c1=O (stereo not drawn) [Compound 48, N-(1-(2-(2,6-dioxopiperidin-3-yl)-3-oxoisoindolin-5-yl)piperidin-4-yl)-5-(4-((7-ethyl-6-oxo-5,6-dihydro-1,5-naphthyridin-3-yl)methyl)piperazin-1-yl)picolinamide] | 28 nM | 94.6% |
| CCc1cc2ncc(CN3CCN(c4ccc(C(=O)N[C@H]5C[C@H](Nc6ccc7c(c6)C(=O)N(C6CCC(=O)NC6=O)C7=O)C5)nc4)CC3)cc2[nH]c1=O (stereo partly drawn) [Compound 38, N-((1r,3r)-3-((2-(2,6-dioxopiperidin-3-yl)-1,3-dioxoisoindolin-5-yl)amino)cyclobutyl)-5-(4-((7-ethyl-6-oxo-5,6-dihydro-1,5-naphthyridin-3-yl)methyl)piperazin-1-yl)picolinamide] | 12 nM | 77.1% |
| CCc1cc2ncc(CN3CCN(c4ccc(C(=O)N[C@H]5C[C@@H](Nc6ccc7c(c6)C(=O)N(C6CCC(=O)NC6=O)C7=O)C5)nc4)CC3)cc2[nH]c1=O (stereo partly drawn) [Compound 37, N-((1s,3s)-3-((2-(2,6-dioxopiperidin-3-yl)-1,3-dioxoisoindolin-5-yl)amino)cyclobutyl)-5-(4-((7-ethyl-6-oxo-5,6-dihydro-1,5-naphthyridin-3-yl)methyl)piperazin-1-yl)picolinamide] | 23 nM | 92.1% |
| CCc1cc2ncc(CN3CCN(c4ccc(NC(=O)c5cnn(C6CCN(c7ccc8c(c7)C(=O)N(C7CCC(=O)NC7=O)C8=O)CC6)c5)nc4)CC3)cc2[nH]c1=O (stereo not drawn) [Compound 68, 1-(1-(2-(2,6-dioxopiperidin-3-yl)-1,3-dioxoisoindolin-5-yl)piperidin-4-yl)-N-(5-(4-((7-ethyl-6-oxo-5,6-dihydro-1,5-naphthyridin-3-yl)methyl)piperazin-1-yl)pyridin-2-yl)-1H-pyrazole-4-carboxamide] | 12.3 nM | 88.6% |
| CCc1cc2ncc(CN3CCN(c4ccc(C(=O)N[C@H]5CCN(c6cc7c(cc6F)C(=O)N(C6CCC(=O)NC6=O)C7=O)C5)nc4)CC3)cc2[nH]c1=O (stereo partly drawn) [Compound 51, N-((3S)-1-(2-(2,6-dioxopiperidin-3-yl)-6-fluoro-1,3-dioxoisoindolin-5-yl)pyrrolidin-3-yl)-5-(4-((7-ethyl-6-oxo-5,6-dihydro-1,5-naphthyridin-3-yl)methyl)piperazin-1-yl)picolinamide] | 19 nM | 97.5% |
| CCc1cc2ncc(CN3CCN(c4ccc(C(=O)NC5CCN(c6cccc(NC7CCC(=O)NC7=O)c6)CC5)nc4)CC3)cc2[nH]c1=O (stereo not drawn) [Compound 64] | 27.9 nM | 84.9% |
| CCc1cc2ncc(CN3CCN(c4ccc(C(=O)NC5CN(c6cccc7c6C(=O)N(C6CCC(=O)NC6=O)C7=O)C5)nc4)CC3)cc2[nH]c1=O (stereo not drawn) [Compound 16, N-(1-(2-(2,6-dioxopiperidin-3-yl)-1,3-dioxoisoindolin-4-yl)azetidin-3-yl)-5-(4-((7-ethyl-6-oxo-5,6-dihydro-1,5-naphthyridin-3-yl)methyl)piperazin-1-yl)picolinamide] | 15 nM | 78.8% |
| Cc1nc2ccc(CN3CCN(c4ccc(C(=O)NC5CCN(c6cccc(N7CCC(=O)NC7=O)c6)CC5)nc4F)CC3)c(F)c2[nH]c1=O [Compound 71, N-(1-(3-(2,4-dioxotetrahydropyrimidin-1(2H)-yl)phenyl)piperidin-4-yl)-6-fluoro-5-(4-((5-fluoro-2-methyl-3-oxo-3,4-dihydroquinoxalin-6-yl)methyl)piperazin-1-yl)picolinamide] | 73.4 nM | 99% |
| CCc1cc2ncc(CN3CCN(c4ccc(C(=O)NC5CC(Oc6ccc7c(c6)C(=O)N(C6CCC(=O)NC6=O)C7=O)C5)nc4)CC3)cc2[nH]c1=O (stereo not drawn) [Compound 60, N-((1s,3s)-3-((2-(2,6-dioxopiperidin-3-yl)-1,3-dioxoisoindolin-5-yl)oxy)cyclobutyl)-5-(4-((7-ethyl-6-oxo-5,6-dihydro-1,5-naphthyridin-3-yl)methyl)piperazin-1-yl)picolinamide] | 33 nM | 82% |
| CCc1cc2ncc(CN3CCN(c4ccc(C(=O)NC5CCN(C6CN(c7cccc8c7C(=O)N(C7CCC(=O)NC7=O)C8=O)C6)CC5)nc4)CC3)cc2[nH]c1=O (stereo not drawn) [Compound 15, N-(1-(1-(2-(2,6-dioxopiperidin-3-yl)-1,3-dioxoisoindolin-4-yl)azetidin-3-yl)piperidin-4-yl)-5-(4-((7-ethyl-6-oxo-5,6-dihydro-1,5-naphthyridin-3-yl)methyl)piperazin-1-yl)picolinamide] | 25 nM | 87.2% |
| CCc1cc2ncc(CN3CCN(c4ccc(C(=O)NC5CCN(c6cccc(N7CCC(=O)NC7=O)c6)CC5)nc4)CC3)cc2[nH]c1=O [Compound 62, N-(1-(3-(2,4-dioxotetrahydropyrimidin-1(2H)-yl)phenyl)piperidin-4-yl)-5-(4-((7-ethyl-6-oxo-5,6-dihydro-1,5-naphthyridin-3-yl)methyl)piperazin-1-yl)picolinamide] | 17.9 nM | 82.9% |
| CCc1cc2ncc(CN3CC=C(c4ccc(C(=O)N[C@H]5CCN(c6ccc7c(c6)C(=O)N(C6CCC(=O)NC6=O)C7=O)C5)nc4)CC3)cc2[nH]c1=O (stereo partly drawn) [Compound 53, N-((3S)-1-(2-(2,6-dioxopiperidin-3-yl)-1,3-dioxoisoindolin-5-yl)pyrrolidin-3-yl)-1′-((7-ethyl-6-oxo-5,6-dihydro-1,5-naphthyridin-3-yl)methyl)-1′,2′,3′,6′-tetrahydro-[3,4′-bipyridine]-6-carboxamide] | 58 nM | 98% |
| CCc1cc2ncc(CN3CCN(c4ccc(C(=O)NC5CCN(c6ncc(N7CCC(=O)NC7=O)cn6)CC5)nc4)CC3)cc2[nH]c1=O [Compound 69, N-(1-(5-(2,4-dioxotetrahydropyrimidin-1(2H)-yl)pyrimidin-2-yl)piperidin-4-yl)-5-(4-((7-ethyl-6-oxo-5,6-dihydro-1,5-naphthyridin-3-yl)methyl)piperazin-1-yl)picolinamide] | 15.3 nM | 88.4% |
| CCc1cc2ncc(CN3CCN(c4ccc(C(=O)NC5CCN(CC6CCN(Cc7ccc(-n8c(O)nnc8-c8cc(C(C)C)c(O)cc8O)cc7)CC6)CC5)nc4)CC3)cc2[nH]c1=O [Compound 8, N-(1-((1-(4-(3-(2,4-dihydroxy-5-isopropylphenyl)-5-hydroxy-4H-1,2,4-triazol-4-yl)benzyl)piperidin-4-yl)methyl)piperidin-4-yl)-5-(4-((7-ethyl-6-oxo-5,6-dihydro-1,5-naphthyridin-3-yl)methyl)piperazin-1-yl)picolinamide] | 15 nM | 99.8% |
| CCc1cc2ncc(CN3CCN(c4ccc(C(=O)NC5CN(c6ccc7c(c6)C(=O)N(C6CCC(=O)NC6=O)C7=O)C5)nc4)CC3)cc2[nH]c1=O (stereo not drawn) [Compound 11, N-(1-(2-(2,6-dioxopiperidin-3-yl)-1,3-dioxoisoindolin-5-yl)azetidin-3-yl)-5-(4-((7-ethyl-6-oxo-5,6-dihydro-1,5-naphthyridin-3-yl)methyl)piperazin-1-yl)picolinamide] | 2 nM | 99.8% |
